# Data from ChEMBL document CHEMBL3885881, “DrugMatrix”.
# Species on record: Rattus norvegicus
# Assay: DrugMatrix - Regimen: Daily Repeat
# Format: toxicity, organism-based, Sprague-Dawley
# Design: regimen Daily Repeat, gender Male, age 6-8 weeks
# Conditions: in vivo, po, route oral GAVAGE, vehicle 100 % WATER; for ABSOLUTE BASOPHIL / ABSOLUTE EOSINOPHIL / ABSOLUTE LYMPHOCYTE / ABSOLUTE MONOCYTE / ABSOLUTE SEGMENTED NEUTROPHIL / BASOPHIL / EOSINOPHIL / ERYTHROCYTE COUNT / HEMATOCRIT / HEMOGLOBIN / LEUKOCYTE COUNT / LYMPHOCYTE / MEAN CORPUSCULAR HEMOGLOBIN / MEAN CORPUSCULAR HEMOGLOBIN CONCENTRATION / MEAN CORPUSCULAR VOLUME / MONOCYTE / NEUTROPHIL / NUCLEATED RED BLOOD CELLS / PLATELET COUNT: tissue Blood; for ALANINE AMINOTRANSFERASE / ALBUMIN / ALKALINE PHOSPHATASE / ASPARTATE AMINOTRANSFERASE / BLOOD UREA NITROGEN / CARBON DIOXIDE / CHLORIDE / CHOLESTEROL / CREATINE PHOSPHOKINASE / CREATININE / GLUCOSE / LACTATE DEHYDROGENASE / LIPASE / PHOSPHORUS / POTASSIUM / SODIUM / TOTAL BILIRUBIN / TOTAL PROTEIN / URIC ACID: tissue Plasma
# [1] = 0 mg/kg, 72 h, dose level Control, time 3 day
# [2] = 0 mg/kg, 120 h, dose level Control, time 5 day
# [3] = 63 mg/kg, 72 h, dose level High, time 3 day
structure (smiles),measurement,setting,value
CNCCC=C1c2ccccc2CCc2ccccc21 [NORTRIPTYLINE],ABSOLUTE BASOPHIL,[1],0 CELLS/uL
same,ABSOLUTE EOSINOPHIL,[1],123.17 CELLS/uL
same,ABSOLUTE LYMPHOCYTE,[1],12677.83 CELLS/uL
same,ABSOLUTE MONOCYTE,[1],66.17 CELLS/uL
same,ABSOLUTE SEGMENTED NEUTROPHIL,[1],1149.5 CELLS/uL
same,BASOPHIL,[1],0%
same,EOSINOPHIL,[1],0.83%
same,ERYTHROCYTE COUNT,[1],5.26 x10E6/uL
same,HEMATOCRIT,[1],33.07%
same,HEMOGLOBIN,[1],13.43 G/DL
same,LEUKOCYTE COUNT,[1],14.02 x10E3/uL
same,LYMPHOCYTE,[1],90.17%
same,MEAN CORPUSCULAR HEMOGLOBIN,[1],25.62 pg
same,MEAN CORPUSCULAR HEMOGLOBIN CONCENTRATION,[1],40.65 G/DL
same,MEAN CORPUSCULAR VOLUME,[1],63 fL
same,MONOCYTE,[1],0.5%
same,NEUTROPHIL,[1],8.5%
same,NUCLEATED RED BLOOD CELLS,[1],0.17 /100WBC
same,PLATELET COUNT,[1],1142.83 x10E3/uL
same,ALANINE AMINOTRANSFERASE,[1],45.17 u/L
same,ALBUMIN,[1],3.78 G/DL
same,ALKALINE PHOSPHATASE,[1],340.17 u/L
same,ASPARTATE AMINOTRANSFERASE,[1],77.33 u/L
same,BLOOD UREA NITROGEN,[1],14.67 mg/dL
same,CARBON DIOXIDE,[1],28.67 mmol/L
same,CHLORIDE,[1],101.17 MEQ/L
same,CHOLESTEROL,[1],77.67 mg/dL
same,CREATINE PHOSPHOKINASE,[1],263.67 u/L
same,CREATININE,[1],0.15 mg/dL
same,GLUCOSE,[1],169.33 mg/dL
same,LACTATE DEHYDROGENASE,[1],230 u/L
same,LIPASE,[1],9.67 u/L
same,PHOSPHORUS,[1],11.8 mg/dL
same,POTASSIUM,[1],5.91 MEQ/L
same,SODIUM,[1],142.88 MEQ/L
same,TOTAL BILIRUBIN,[1],0.22 mg/dL
same,TOTAL PROTEIN,[1],5.7 G/DL
same,URIC ACID,[1],1.35 mg/dL
same,ABSOLUTE BASOPHIL,[2],0 CELLS/uL
same,ABSOLUTE EOSINOPHIL,[2],125 CELLS/uL
same,ABSOLUTE LYMPHOCYTE,[2],13809 CELLS/uL
same,ABSOLUTE MONOCYTE,[2],351 CELLS/uL
same,ABSOLUTE SEGMENTED NEUTROPHIL,[2],1581.67 CELLS/uL
same,BASOPHIL,[2],0%
same,EOSINOPHIL,[2],0.67%
same,ERYTHROCYTE COUNT,[2],5.53 x10E6/uL
same,HEMATOCRIT,[2],34.83%
same,HEMOGLOBIN,[2],13.9 G/DL
same,LEUKOCYTE COUNT,[2],15.87 x10E3/uL
same,LYMPHOCYTE,[2],87.5%
same,MEAN CORPUSCULAR HEMOGLOBIN,[2],25.25 pg
same,MEAN CORPUSCULAR HEMOGLOBIN CONCENTRATION,[2],40.08 G/DL
same,MEAN CORPUSCULAR VOLUME,[2],63.05 fL
same,MONOCYTE,[2],2.17%
same,NEUTROPHIL,[2],9.67%
same,NUCLEATED RED BLOOD CELLS,[2],0 /100WBC
same,PLATELET COUNT,[2],1044 x10E3/uL
same,ALANINE AMINOTRANSFERASE,[2],50.67 u/L
same,ALBUMIN,[2],4.33 G/DL
same,ALKALINE PHOSPHATASE,[2],395 u/L
same,ASPARTATE AMINOTRANSFERASE,[2],86 u/L
same,BLOOD UREA NITROGEN,[2],15.33 mg/dL
same,CARBON DIOXIDE,[2],29.33 mmol/L
same,CHLORIDE,[2],101.5 MEQ/L
same,CHOLESTEROL,[2],71.33 mg/dL
same,CREATINE PHOSPHOKINASE,[2],323.17 u/L
same,CREATININE,[2],0.18 mg/dL
same,GLUCOSE,[2],145.67 mg/dL
same,LACTATE DEHYDROGENASE,[2],389.5 u/L
same,LIPASE,[2],9.83 u/L
same,PHOSPHORUS,[2],11.35 mg/dL
same,POTASSIUM,[2],6.39 MEQ/L
same,SODIUM,[2],142.77 MEQ/L
same,TOTAL BILIRUBIN,[2],0.18 mg/dL
same,TOTAL PROTEIN,[2],6.1 G/DL
same,URIC ACID,[2],1.52 mg/dL
same,ABSOLUTE BASOPHIL,[3],0 CELLS/uL
same,ABSOLUTE EOSINOPHIL,[3],63 CELLS/uL
same,ABSOLUTE LYMPHOCYTE,[3],15345.67 CELLS/uL
same,ABSOLUTE MONOCYTE,[3],215.33 CELLS/uL
same,ABSOLUTE SEGMENTED NEUTROPHIL,[3],642.67 CELLS/uL
same,BASOPHIL,[3],0%
same,EOSINOPHIL,[3],0.33%
same,ERYTHROCYTE COUNT,[3],6.2 x10E6/uL
same,HEMATOCRIT,[3],38.33%
same,HEMOGLOBIN,[3],14.97 G/DL
same,LEUKOCYTE COUNT,[3],16.27 x10E3/uL
same,LYMPHOCYTE,[3],94.33%
same,MEAN CORPUSCULAR HEMOGLOBIN,[3],24.13 pg
same,MEAN CORPUSCULAR HEMOGLOBIN CONCENTRATION,[3],39.07 G/DL
same,MEAN CORPUSCULAR VOLUME,[3],61.83 fL
same,MONOCYTE,[3],1.33%
same,NEUTROPHIL,[3],4%
same,NUCLEATED RED BLOOD CELLS,[3],1 /100WBC
same,PLATELET COUNT,[3],1320 x10E3/uL
same,ALANINE AMINOTRANSFERASE,[3],47.33 u/L
same,ALBUMIN,[3],3.83 G/DL
same,ALKALINE PHOSPHATASE,[3],416.67 u/L
same,ASPARTATE AMINOTRANSFERASE,[3],75 u/L
same,BLOOD UREA NITROGEN,[3],15 mg/dL
same,CARBON DIOXIDE,[3],29.33 mmol/L
same,CHLORIDE,[3],101 MEQ/L
same,CHOLESTEROL,[3],74.67 mg/dL
same,CREATINE PHOSPHOKINASE,[3],194 u/L
same,CREATININE,[3],0.17 mg/dL
same,GLUCOSE,[3],184 mg/dL
same,LACTATE DEHYDROGENASE,[3],108 u/L
same,LIPASE,[3],9 u/L
same,PHOSPHORUS,[3],13.13 mg/dL
same,POTASSIUM,[3],6.61 MEQ/L
same,SODIUM,[3],143.73 MEQ/L
same,TOTAL BILIRUBIN,[3],0.2 mg/dL
same,TOTAL PROTEIN,[3],5.63 G/DL
same,URIC ACID,[3],1.9 mg/dL
